Laboratory results as given in publication PMC9578143, “Small-Molecule Ebselen Binds to YTHDF Proteins Interfering with the Recognition of N^6-Methyladenosine-Modified RNAs” (ACS Pharmacology & Translational Science, 2022).
Values joined by “and” are separate entries in the source; they are usually repeats but may differ in a detail not shown here. Equal entries are not always repeated. “Also recorded” adds a separate entry of the source. Where two headings read alike, the source gives them in different places. Blank lines part the entries; values can stand above or below the molecule they belong to.

Key:
YTHDF1 YTH domain [1] = target: T1, YTHDF1 YTH domain (Homo sapiens, UniProt Q9BYJ9); experiment: Tryptophan fluorescence quenching assay; format: binding
T1 construct: The human YTHDF1 YTH domain (amino acids 365–554, PDB: 4RCJ); host or cells: E. coli BL21(DE3)
T1 sequence (Q9BYJ9 365-554): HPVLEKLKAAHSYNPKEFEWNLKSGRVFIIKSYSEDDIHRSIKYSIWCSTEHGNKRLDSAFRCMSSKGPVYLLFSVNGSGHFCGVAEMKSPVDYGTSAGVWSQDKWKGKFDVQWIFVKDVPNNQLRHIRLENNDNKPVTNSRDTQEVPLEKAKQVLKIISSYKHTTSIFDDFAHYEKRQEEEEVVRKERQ
Method: Fluorescence was measured using a Tecan Infinite 200 Microplate reader (Tecan Group Ltd.), setting the […] wavelength at 288 nm and collecting the emission data at 330 nm.

YTHDF1 domain = target: T2, YTHDF1 domain (Homo sapiens, UniProt Q9BYJ9); experiment: High-throughput screen, tryptophan quenching, Z-score; format: binding; conditions: 5 μM protein, compounds at 10 μM
T2 construct: The human YTHDF1 YTH domain (amino acids 365–554, PDB: 4RCJ); host or cells: E. coli BL21(DE3)
T2 sequence (Q9BYJ9 365-554): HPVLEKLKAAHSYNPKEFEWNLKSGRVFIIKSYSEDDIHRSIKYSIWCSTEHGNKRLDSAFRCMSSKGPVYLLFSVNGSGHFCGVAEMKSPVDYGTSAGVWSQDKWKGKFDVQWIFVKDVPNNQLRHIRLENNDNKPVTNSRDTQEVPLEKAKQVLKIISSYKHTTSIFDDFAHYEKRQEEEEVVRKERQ
Method: A Z factor of 0.53 was obtained. The high-throughput screen was performed by using an automatic liquid handling (Freedom EVO, Tecan), filling black 384-well plates with 15 μL of 5 μM protein in 20 mM Tris (pH 7.5), 150 mM NaCl, and 10% glycerol, and then by adding the library of compounds at a final concentration of 10 μM. Fluorescence was measured immediately after compound addition. The library used was the Spectrum Collection (Microsource Discovery System, Inc.), composed of 2560 compounds, of whom 60% are clinically used drugs, 25% natural products, and 15% other bioactive molecules. The Z-score was calculated as (X – μp)/σp, where X is the fluorescence intensity of the protein. Candidate molecules were considered all of the ones that were under the threshold of Z = −3, while all of the ones over that value were discarded.

[2] = target: T3, YTH domain of YTHDF1 / biotinylated RNA probe 5′-Bi-CCGAm6ACUGUC-3′ (Homo sapiens, UniProt Q9BYJ9); experiment: AlphaScreen competitive assay, saturation binding; conditions: for Disruption of the YTH/RNA interaction (AlphaScreen, in words): YTHDF1 YTH domain
T3 construct: The human YTHDF1 YTH domain (amino acids 365–554, PDB: 4RCJ); host or cells: E. coli BL21(DE3)
T3 sequence (Q9BYJ9 365-554): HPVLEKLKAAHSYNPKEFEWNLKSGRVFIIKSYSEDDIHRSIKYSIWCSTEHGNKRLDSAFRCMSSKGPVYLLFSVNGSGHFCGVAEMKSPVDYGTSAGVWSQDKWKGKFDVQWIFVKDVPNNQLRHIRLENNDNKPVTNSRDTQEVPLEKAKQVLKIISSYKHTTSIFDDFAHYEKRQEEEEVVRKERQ
Method: The Amplified Luminescent Proximity Homogeneous Assay (ALPHA Assay) was performed in white 384-well Optiplates (PerkinElmer) in a final volume of 20 μL, and it was first optimized by titrating both the protein and the biotinylated RNA probe (5′-Bi-CCGAm6ACUGUC-3′, Dharmacon) to find the appropriate right protein/RNA ratio before the saturation of the detection signal. […] Anti-His acceptor beads (PerkinElmer) (20 μg/mL final concentration) and streptavidin donor beads (20 μg/mL final concentration) were added and the reaction was incubated in the dark at room temperature for 1 h to reach equilibrium. Light signals were detected with an Enspire Multimode Plate reader (PerkinElmer). […] The IC50 of ebselen was determined from the nonlinear regression fits of the data.

YTHDF1 YTH domain [3] = target: T4, YTHDF1 YTH domain (human, UniProt Q9BYJ9 365-554); experiment: dynamic mass redistribution; conditions: EC50; immobilized protein; m6A; Fluorescence: 20 mM Hepes pH 7.5, 150 mM NaCl, 10% glycerol; REMSA: 20 mM Hepes pH 7.5, 50 mM KCl, BSA, 0.25% glycerol, gel at 4 C; AlphaScreen: 25 mM Hepes pH …
T4 sequence: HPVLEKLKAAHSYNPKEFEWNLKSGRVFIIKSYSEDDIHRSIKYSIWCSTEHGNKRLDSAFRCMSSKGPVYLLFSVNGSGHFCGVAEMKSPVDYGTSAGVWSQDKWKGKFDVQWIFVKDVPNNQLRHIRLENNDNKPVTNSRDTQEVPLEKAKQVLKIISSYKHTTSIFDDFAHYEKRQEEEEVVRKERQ

YTHDF1 YTH domain [4] = target: T4, YTHDF1 YTH domain; experiment: tryptophan fluorescence quenching; EC50; 5 uM protein; Fluorescence: 20 mM Hepes pH 7.5, 150 mM NaCl, 10% glycerol; REMSA: 20 mM Hepes pH 7.5, 50 mM KCl, BSA, 0.25% glycerol, gel at 4 C; AlphaScreen: 25 mM Hepes pH; conditions: protein: recombinant; tags: 6xHis (C-terminal as stated); single strand
YTHDF1 YTH domain [5] = target: T4, YTHDF1 YTH domain; experiment: tryptophan fluorescence quenching; 5 uM protein; Fluorescence: 20 mM Hepes pH 7.5, 150 mM NaCl, 10% glycerol; REMSA: 20 mM Hepes pH 7.5, 50 mM KCl, BSA, 0.25% glycerol, gel at 4 C; AlphaScreen: 25 mM Hepes pH; conditions: protein: recombinant; tags: 6xHis (C-terminal as stated); single strand
[6] = 5 μM protein, read-out: EC50 (tryptophan quenching)
[7] = Table 1, read-out: EC50 (μM) (Tryptophan quenching)

Molecule: 5-′CCGAm6ACUGUC-3′
EC50 (YTHDF1 YTH domain [1]; [6]): 0.14 µM and 0.139 µM

Mean(FI.z-score) (YTHDF1 domain): -3.853
Molecule: O=C1C(Cl)=C(Cl)C(=O)c2c(O)ccc(O)c21 [2,3-DICHLORO-5,8-DIHYDROXYNAPTHOQUINONE]

Molecule: O=C1C(Cl)=C(Cl)C(=O)C(Cl)=C1Cl [CHLORANIL]
Mean(FI.z-score) (YTHDF1 domain): -4.349

Molecule: O=c1c2ccccc2sn1-c1ccccc1 [Compound 2, 2-Phenylbenzo[d]isothiazol-3(2H)-one]
Tryptophan fluorescence quenching / binding to the YTH domain (in words) (YTHDF1 YTH domain [1]): maintained both capacities
EC50 (YTHDF1 YTH domain [1]; [7]): 1.76 ± 0.02 µM
IC50 ([2]; 50 nM RNA, 50 nM protein, compound 0–100 μM): 23140 ± 80 nM
Disruption of the YTH/RNA interaction (AlphaScreen, in words) [2]: maintained both capacities

EC50 (YTHDF1 YTH domain [1]; [7]): > 100 µM
Molecule: O=C1c2ccccc2CN1c1ccccc1 [Compound 3, 2-phenylisoindolin-1-one]
Tryptophan fluorescence quenching / binding to the YTH domain (in words) (YTHDF1 YTH domain [1]): completely abolished; also recorded: failed to generate a dose–response curve
Disruption of the YTH/RNA interaction (AlphaScreen, in words) [2]: completely abolished; also recorded: failed

EC50 (YTHDF1 YTH domain [1]; [7]): 1.89 ± 0.33 µM
Molecule: O=c1c2ccccc2[se]n1-c1ccc(F)cc1 [Compound 4, 2-(4-Fluorophenyl)benzo[d][1,2]selenazol-3(2H)-one]

EC50 (YTHDF1 YTH domain [1]; [7]): 1.63 ± 0.89 µM
Molecule: O=c1c2ccccc2sn1-c1ccc(F)cc1 [Compound 5, 2-(4-Fluorophenyl)benzo[d]isothiazol-3(2H)-one]

EC50 (YTHDF1 YTH domain [1]; [7]): 1.48 ± 0.26 µM
Molecule: CCN(CC)CCn1[se]c2ccccc2c1=O [Compound 6, 2-(2-(Diethylamino)ethyl)benzo[d][1,2]selenazol-3(2H)-one]

EC50 (YTHDF1 YTH domain [1]; [7]): 1.69 ± 0.26 µM
Molecule: CCN(CC)CCn1sc2ccccc2c1=O [Compound 7, 2-(2-(Diethylamino)ethyl)benzo[d]isothiazol-3(2H)-one]

EC50 (YTHDF1 YTH domain [1]; [7]): 3.35 ± 2.2 µM
Molecule: O=c1c2ccccc2[se]n1CCN1CCOCC1 [Compound 8, 2-(2-Morpholinoethyl)benzo[d][1,2]selenazol-3(2H)-one]

EC50 (YTHDF1 YTH domain [1]; [7]): 2.83 ± 1.08 µM
Molecule: O=c1c2ccccc2sn1CCN1CCOCC1 [Compound 9, 2-(2-Morpholinoethyl)benzo[d]isothiazol-3(2H)-one]

EC50 (YTHDF1 YTH domain [1]; [7]): 2.9 ± 1.8 µM
Molecule: O=C(NCCN1CCOCC1)c1ccccc1SSc1ccccc1C(=O)NCCN1CCOCC1 [Compound 10, 2,2′-Disulfanediylbis(N-(2-morpholinoethyl)benzamide)]

Tryptophan fluorescence quenching / binding to the YTH domain (in words) (YTHDF1 YTH domain [1]): not upon adenosine addition
Molecule: Nc1ncnc2c1ncn2[C@@H]1O[C@H](CO)[C@@H](O)[C@H]1O [adenosine]

EC50 (YTHDF1 YTH domain [1]; [6]): 596 µM
Molecule: CNc1ncnc2c1ncn2[C@@H]1O[C@H](CO)[C@@H](O)[C@H]1O [m6A, N^6-methyladenosine]

Molecule: m6A RNA probe used in DMR
K half (YTHDF1 YTH domain [3]): 63.8 nM

B1: GGm6ACU ssRNA (m6A-RNA) (ssRNA)
RNA: CCGGACUGUC
modifications: m6A at position 5
apparent K (half saturation) (YTHDF1 YTH domain [4]): 1050 nM

B2: GGACU ssRNA unmethylated (ssRNA)
RNA: CCGGACUGUC
binding result (YTHDF1 YTH domain [5]): no binding

B3: GAACU ssRNA unmethylated (ssRNA)
RNA: CCGAACUGUC
binding result (YTHDF1 YTH domain [5]): no binding

B4: GAm6ACU ssRNA (ssRNA)
RNA: CCGAACUGUC
modifications: m6A at position 5
apparent K (half saturation) (YTHDF1 YTH domain [4]): 140 nM
